Reference: the NIST ThermoML archive (doi:10.1016/j.jct.2012.01.022)
± gives the expanded uncertainty stated by the source.

Assay: xn = mol fraction of the nth substance listed
Details: 101 kPa, Liquid; for speed of sound: Sing-around technique in a fixed-path interferometer; for mass density: Vibrating tube method

SMILES: NCCN [ethane-1,2-diamine] + CCCCCCO
- speed of sound (308.15 K, x1 = 0.81): 1508.5 ± 1.3 m/s
- speed of sound (308.15 K, x1 = 0.8583): 1534.1 ± 1.3 m/s
- speed of sound (308.15 K, x1 = 0.9028): 1560.6 ± 1.3 m/s
- speed of sound (308.15 K, x1 = 0.945): 1587.7 ± 1.3 m/s
- mass density (308.15 K, x1 = 0.0773): 813.087 ± 0.39 kg/m3
- mass density (308.15 K, x1 = 0.1213): 816.005 ± 0.38 kg/m3
- mass density (308.15 K, x1 = 0.1604): 818.427 ± 0.37 kg/m3
- mass density (308.15 K, x1 = 0.1925): 820.356 ± 0.37 kg/m3
- mass density (308.15 K, x1 = 0.2525): 824 ± 0.36 kg/m3
- mass density (308.15 K, x1 = 0.2907): 826.113 ± 0.35 kg/m3
- mass density (308.15 K, x1 = 0.3942): 832.134 ± 0.33 kg/m3
- mass density (308.15 K, x1 = 0.5086): 838.821 ± 0.31 kg/m3
- mass density (308.15 K, x1 = 0.6059): 844.903 ± 0.3 kg/m3
- mass density (308.15 K, x1 = 0.7125): 852.798 ± 0.28 kg/m3
- mass density (308.15 K, x1 = 0.81): 861.03 ± 0.26 kg/m3
- mass density (308.15 K, x1 = 0.8583): 865.917 ± 0.26 kg/m3
- mass density (308.15 K, x1 = 0.9028): 871.143 ± 0.25 kg/m3
- mass density (308.15 K, x1 = 0.945): 876.241 ± 0.24 kg/m3
- speed of sound (313.15 K, x1 = 0.0773): 1271.1 ± 1.6 m/s
- speed of sound (313.15 K, x1 = 0.1213): 1281.6 ± 1.6 m/s
- speed of sound (313.15 K, x1 = 0.1604): 1290.4 ± 1.6 m/s
- speed of sound (313.15 K, x1 = 0.1925): 1297.9 ± 1.6 m/s
- speed of sound (313.15 K, x1 = 0.2525): 1312.4 ± 1.5 m/s
- speed of sound (313.15 K, x1 = 0.2907): 1321.1 ± 1.5 m/s
- speed of sound (313.15 K, x1 = 0.3942): 1347 ± 1.5 m/s
- speed of sound (313.15 K, x1 = 0.5086): 1377.9 ± 1.4 m/s
- speed of sound (313.15 K, x1 = 0.6059): 1407.5 ± 1.4 m/s
- speed of sound (313.15 K, x1 = 0.7125): 1445.3 ± 1.4 m/s
- speed of sound (313.15 K, x1 = 0.81): 1488.5 ± 1.3 m/s
- speed of sound (313.15 K, x1 = 0.8583): 1513.6 ± 1.3 m/s
- speed of sound (313.15 K, x1 = 0.9028): 1539.7 ± 1.3 m/s
- speed of sound (313.15 K, x1 = 0.945): 1566.3 ± 1.3 m/s
- mass density (313.15 K, x1 = 0.0773): 809.362 ± 0.39 kg/m3
- mass density (313.15 K, x1 = 0.1213): 812.228 ± 0.38 kg/m3
- mass density (313.15 K, x1 = 0.1604): 814.602 ± 0.37 kg/m3
- mass density (313.15 K, x1 = 0.1925): 816.496 ± 0.37 kg/m3
- mass density (313.15 K, x1 = 0.2525): 820.069 ± 0.36 kg/m3
- mass density (313.15 K, x1 = 0.2907): 822.144 ± 0.35 kg/m3
- mass density (313.15 K, x1 = 0.3942): 828.065 ± 0.33 kg/m3
- mass density (313.15 K, x1 = 0.5086): 834.657 ± 0.31 kg/m3
- mass density (313.15 K, x1 = 0.6059): 840.646 ± 0.3 kg/m3
- mass density (313.15 K, x1 = 0.7125): 848.435 ± 0.28 kg/m3
- mass density (313.15 K, x1 = 0.81): 856.554 ± 0.26 kg/m3
- mass density (313.15 K, x1 = 0.8583): 861.384 ± 0.26 kg/m3
- mass density (313.15 K, x1 = 0.9028): 866.55 ± 0.25 kg/m3
- mass density (313.15 K, x1 = 0.945): 871.587 ± 0.24 kg/m3
